# Patent publication EP0738149B1 (priority 1994, dated 1995)
# Where a name gives a salt, the structure may show the parent alone.
# System: male ICR albino mice
# Test: Hypobaric hypoxia survival time in mice
# Type: in vivo
# Conditions: 5 mg/kg ip 0.5 hour prior to hypoxia
# Description: Dessicator B was disconnected and allowed to equilibrate with room air whilst dessicator A was evacuated to a pressure of 100mmHg. […] The survival time from the moment of induction of hypoxia to the time of cessation of respiration was recorded for each mouse for a maximum of 15 minutes after which time room air was reintroduced to dessicator B. Survivors were monitored for signs of lethargy or vitality.
# Effect of drug treatment was assessed as the percent of the survival time of the drug treated group with respect to the saline injected or vehicle injected control group. Control groups were run twice, before and after each experimental group and consisted of 12-16 mice in groups of 4 mice. Each experimental group always consisted of 4 mice to ensure a constant residual volume of oxygen in all tests. The effect of each dose of test drug was determined in duplicate i.e. two groups of 4 mice.
# All drugs were administered intra-peritoneally at the dose indicated one hour prior to exposure to hypoxia.
row,SMILES,PROTECTION % OF RESPECTIVE CONTROL [% OF RESPECTIVE CONTROL]
1,"CN1C(=O)CN=C(c2ccccc2)c2cc(Cl)ccc21 [Diazepam, diazepam, reference compound]",249±166

# Same assay, conditions: 10 mg/kg ip 0.5 hour prior to hypoxia
row,SMILES,PROTECTION % OF RESPECTIVE CONTROL [% OF RESPECTIVE CONTROL]
1,"CN1C(=O)CN=C(c2ccccc2)c2cc(Cl)ccc21 [Diazepam, diazepam, reference compound]",430±59

# Same assay, conditions: 20 mg/kg ip 0.5 hour prior to hypoxia
row,SMILES,PROTECTION % OF RESPECTIVE CONTROL [% OF RESPECTIVE CONTROL]
1,"CCCC(C)C1(CC)C(=O)NC(=O)NC1=O (stereo not shown) [Pentobarbitone, sodium pentobarbital, reference compound]",325±166

# Same assay, conditions: 40 mg/kg ip 0.5 hour prior to hypoxia
row,SMILES,PROTECTION % OF RESPECTIVE CONTROL [% OF RESPECTIVE CONTROL]
1,"CCCC(C)C1(CC)C(=O)NC(=O)NC1=O (stereo not shown) [Pentobarbitone, sodium pentobarbital, reference compound]",446±10.5

# Same assay, conditions: 50 mg/kg ip one hour prior to hypoxia
row,SMILES,PROTECTION % OF RESPECTIVE CONTROL [% OF RESPECTIVE CONTROL]
1,"NC1CCc2cccc(O)c21 (racemic) [Example 42, (rac)-7-Hydroxy-1-aminoindan.HCl]",179±170
2,"C[C@@H]1Cc2ccccc2[C@H]1N [Example 39, (rac)-trans-2-Methyl-1-aminoindan.HCl]",600±213
3,"Cc1cc(C)c2c(c1)C(C)CC2N.Cl (racemic) [Example 41, (rac)-3,5,7-Trimethyl-1-aminoindan.HCl]",187±41
4,"COc1ccc2c(c1OC)CC[C@@H]2N.Cl [Example 30, (S)-4,5-Dimethoxy-1-aminoindan, HCl]",265±284
5,"Cc1cccc2c1C(N)CC2 (racemic) [Example 28, (rac)-7-Methyl-1-aminoindan.HCl]",361±106
6,"C[C@H]1Cc2ccccc2[C@H]1N [Example 40, (rac)-cis-2-Methyl-1-aminoindan.HCl]",374±190

# Same assay, conditions: 100 mg/kg ip one hour prior to hypoxia
row,SMILES,PROTECTION % OF RESPECTIVE CONTROL [% OF RESPECTIVE CONTROL]
1,"NC1CCc2cccc(O)c21 (racemic) [Example 42, (rac)-7-Hydroxy-1-aminoindan.HCl]",228±119
2,"C[C@@H]1Cc2ccccc2[C@H]1N [Example 39, (rac)-trans-2-Methyl-1-aminoindan.HCl]",798±249
3,"Cc1cc(C)c2c(c1)C(C)CC2N.Cl (racemic) [Example 41, (rac)-3,5,7-Trimethyl-1-aminoindan.HCl]",644±316
4,"COc1ccc2c(c1OC)CC[C@@H]2N.Cl [Example 30, (S)-4,5-Dimethoxy-1-aminoindan, HCl]",379±202
5,"Cc1cccc2c1C(N)CC2 (racemic) [Example 28, (rac)-7-Methyl-1-aminoindan.HCl]",941±34
6,"C[C@H]1Cc2ccccc2[C@H]1N [Example 40, (rac)-cis-2-Methyl-1-aminoindan.HCl]",569±173

# System: not listed separately
# Test: in vivo
# Conditions: mouse, in vivo, ip, MICE TD50
# Description: (§1) Neurotoxicity of the claimed agents was also assessed in mice (i.p. administration) by the rotorod ataxia test and/or in rats (p.o. administration) by positional sense test and gait stance test. […] The term quantitating the neurotoxicity is the medial neurological toxic dose (TD50), was determined in the above tests.
row,SMILES,TD50 [mg/kg]
1,"CC(=O)NC1CCc2cccc(C)c21 (racemic) [Example 20, (rac)-7-Methyl-N-acetyl-1-aminoindan]",100

# Same assay, conditions: mouse, in vivo, ip, MICE TD50, mice; Table 15
row,SMILES,TD50 [mg/kg]
1,"COc1ccc2c(c1OC)CCC2N (racemic) [Example 31, (rac)-4,5-Dimethoxy-1-aminoindan.HCl]",< 100
2,"C[C@@H]1Cc2ccccc2[C@H]1N [Example 39, (rac)-trans-2-Methyl-1-aminoindan.HCl]",< 100
3,"COc1ccc2c(c1)C(N)CC2 (racemic) [Example 25, (rac)-6-Methoxy-1-aminoindan.HCl]",> 100
4,"CN(C)C1CCc2ccccc21 (racemic) [Example 15, (rac)-N,N-Dimethyl-1-aminoindan.HCl]",< 100
5,"Cc1cccc2c1C(N)CC2 (racemic) [Example 28, (rac)-7-Methyl-1-aminoindan.HCl]",< 100
6,"C[C@H]1Cc2ccccc2[C@H]1N [Example 40, (rac)-cis-2-Methyl-1-aminoindan.HCl]",< 100

# Same assay, conditions: mouse, in vivo, ip, MICE TD50, mice; Table 16
row,SMILES,TD50 [mg/kg]
1,"CN(C)C1CCc2ccccc21 (racemic) [Example 15, (rac)-N,N-Dimethyl-1-aminoindan.HCl]",< 100

# System: mice
# Test: Maximal electroshock (MES) model in mice, i.p.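 Also: Electroshock-induced convulsion model serving to demonstrate antiepileptic efficacy against generalized and partial seizures.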
# Type: in vivo
# Conditions: Mus musculus, ip, Table 15
row,SMILES,ED50 [mg/kg]
1,"COc1ccc2c(c1OC)CCC2N (racemic) [Example 31, (rac)-4,5-Dimethoxy-1-aminoindan.HCl]",< 100
2,"C[C@@H]1Cc2ccccc2[C@H]1N [Example 39, (rac)-trans-2-Methyl-1-aminoindan.HCl]",< 100
3,"CC(=O)NC1CCc2cccc(C)c21 (racemic) [Example 20, (rac)-7-Methyl-N-acetyl-1-aminoindan]",< 100
4,"COc1ccc2c(c1)C(N)CC2 (racemic) [Example 25, (rac)-6-Methoxy-1-aminoindan.HCl]",< 100
5,"Cc1cccc2c1C(N)CC2 (racemic) [Example 28, (rac)-7-Methyl-1-aminoindan.HCl]",< 100
6,"C[C@H]1Cc2ccccc2[C@H]1N [Example 40, (rac)-cis-2-Methyl-1-aminoindan.HCl]",< 100

# Same assay, conditions: statement in words
row,SMILES,activity in the MES model in mice
1,"COc1ccc2c(c1OC)CCC2N (racemic) [Example 31, (rac)-4,5-Dimethoxy-1-aminoindan.HCl]",showed activity

# System: not listed separately
# Test: in vivo
# Conditions: rat, in vivo, po
# Description: as §1
row,SMILES,TD50 [mg/kg]
1,"COc1ccc2c(c1OC)CCC2N (racemic) [Example 31, (rac)-4,5-Dimethoxy-1-aminoindan.HCl]",> 50
2,"NC1CCc2cccc(O)c21 (racemic) [Example 42, (rac)-7-Hydroxy-1-aminoindan.HCl]",> 50
3,"C[C@@H]1Cc2ccccc2[C@H]1N [Example 39, (rac)-trans-2-Methyl-1-aminoindan.HCl]",> 50
4,"CC(=O)NC1CCc2cccc(C)c21 (racemic) [Example 20, (rac)-7-Methyl-N-acetyl-1-aminoindan]",> 50
5,"CN(C)C1CCc2ccccc21 (racemic) [Example 15, (rac)-N,N-Dimethyl-1-aminoindan.HCl]",> 50
6,"Cc1cccc2c1C(N)CC2 (racemic) [Example 28, (rac)-7-Methyl-1-aminoindan.HCl]",> 50
7,"C[C@H]1Cc2ccccc2[C@H]1N [Example 40, (rac)-cis-2-Methyl-1-aminoindan.HCl]",> 50

# System: rats
# Test: Neurotoxicity in rats (positional sense test and gait stance test), p.o.
# Conditions: rats, p.o.; Table 16
# Description: as §1
row,SMILES,RATS TD50 [mg/kg]
1,"CN(C)C1CCc2ccccc21 (racemic) [Example 15, (rac)-N,N-Dimethyl-1-aminoindan.HCl]",>50

# System: rats
# Test: Maximal electroshock (MES) model in rats, p.o.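 Also: rat MES model gauging antiepileptic efficacy versus generalized and partial seizures after oral dosing.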
# Type: in vivo
# Conditions: Rattus norvegicus, po; rats, p.o.; Table 15; read-out: RATS MES 50
row,SMILES,ED50 [mg/kg]
1,"CC(=O)NC1CCc2cccc(C)c21 (racemic) [Example 20, (rac)-7-Methyl-N-acetyl-1-aminoindan]",< 50

# Same assay, conditions: rats, p.o.; Table 15
row,SMILES,RATS MES 50 [mg/kg]
1,"NC1CCc2cccc(O)c21 (racemic) [Example 42, (rac)-7-Hydroxy-1-aminoindan.HCl]",<50
2,"C[C@@H]1Cc2ccccc2[C@H]1N [Example 39, (rac)-trans-2-Methyl-1-aminoindan.HCl]",<50
3,"COc1ccc2c(c1)C(N)CC2 (racemic) [Example 25, (rac)-6-Methoxy-1-aminoindan.HCl]",50
4,"CN(C)C1CCc2ccccc21 (racemic) [Example 15, (rac)-N,N-Dimethyl-1-aminoindan.HCl]",50
5,"Cc1cccc2c1C(N)CC2 (racemic) [Example 28, (rac)-7-Methyl-1-aminoindan.HCl]",<50
6,"C[C@H]1Cc2ccccc2[C@H]1N [Example 40, (rac)-cis-2-Methyl-1-aminoindan.HCl]",<50
